The results in this text go back to PubChem BioAssay (NCI).

In this experiment the test system is P388/ADR leukemia. As to the kind of experiment: NCI tumour cell line growth inhibition, 48 h.

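Five compound concentrations were applied to cells in 96-well plates for 48 hours; endpoints were derived by simple linear interpolation of the resulting dose-response curve. TGI is the concentration that stops growth completely.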

`CC1(C)N=C(N)N=C(N)N1c1ccc(CCCCc2ccc(S(=O)(=O)F)cc2Cl)c(Cl)c1` showed a TGI of 7.56 µM.
For `O=C(O)CCCc1ccc(N(CCCl)CCCl)cc1`, the TGI was 154 µM.
